The text below walks through data of patent US7601686B2, “Hepatitis C virus inhibitors” (Bristol-Myers Squibb Company, priority 2005, dated 2009).

Like-named read-outs stand apart in the source and are kept apart here.

The test system of assay [1] is HCV replicon in HUH-7 cells. Nature of the assay: HCV replicon FRET assay. The assay is classed as cell-based, Hepatitis C virus (strain 1b). As to conditions: Hepatitis C virus. A digest of the protocol:
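HUH-7 cells stably carrying a genotype 1b subgenomic HCV replicon (neo selection) treated with compound for 4 days at 37 °C, 0.5% DMSO final. Cytotoxicity (CC50) from alamar Blue fluorescence after 4 h (ex 530/em 580 nm), before the FRET replication read-out.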
For orientation: In antiviral work, replicon cells carry a viral genome segment that copies itself.

Assay [2] relates to human pancreatic chymotrypsin. In words: Specificity assay, chymotrypsin. As to conditions: 2 h enzyme-inhibitor pre-incubation; read-out: Chymotrypsin activity in the specificity assays. The assay is classed as biochemical. Here is the method: The specificities of compounds of the present disclosure were determined against a variety of serine proteases: human neutrophil elastase (HNE), porcine pancreatic elastase (PPE) and human pancreatic chymotrypsin and one cysteine protease: human liver cathepsin B. In all cases a 96-well plate format protocol using colorimetric p-nitroaniline (pNA) substrate specific for each enzyme was used as described previously (PCT Patent Application No. WO 00/09543) with some modifications to the serine protease assays. All enzymes were purchased from Sigma while the substrates were from Bachem.
Each assay included a 2 h enzyme-inhibitor pre-incubation at room temperature followed by addition of substrate and hydrolysis to ˜30% conversion as measured on a Spectramax Pro microplate reader. Compound concentrations varied from 100 to 0.4 μM depending on their potency.
The final conditions for each assay were the same as those described in WO 03/099274, page 623.
The percentage of inhibition was calculated using the formula: [1−((UVinh−UVblank)/(UVctl−UVblank))]×100
A non-linear curve fit was applied to the inhibition-concentration data, and the 50% effective concentration (IC50) was calculated by the use of Excel XLfit software.

In the case of `C=CC1CC1(NC(=O)[C@@H]1C[C@@H](NC(=O)c2cc(-c3ccccc3)nc3ccccc23)CN1C(=O)[C@@H](NC(=O)CC1CC1)C(C)(C)C)C(=O)NS(=O)(=O)C1CC1` (stereo partly drawn) [Compound 9], the half-maximal effective concentration (EC50) (usually the concentration at which the effect is half-maximal) in assay [1] (HCV replicon cell assay, HUH-7, read-out: EC50 Range) was 0.15 to 15 µM; in assay [1] (HCV replicon, HUH-7 cells, read-out: EC50 value in the replicon assay), 2.25 µM. Further, the IC50 in assay [2] worked out at 65 µM.
